Drawing on the NIST ThermoML archive (doi:10.1016/j.jct.2016.10.035), this text covers mass density for 1 compound.

± gives the expanded uncertainty stated by the source.

For the series the following is noted: 298.15 K; 100 kPa; Crystal; X-ray diffraction.

As a reminder, the mass density is the mass of a sample divided by its volume. For `O=P([O-])([O-])[O-].O=P([O-])([O-])[O-].O=P([O-])([O-])[O-].[Ca+2].[Ca+2].[Ca+2].[Ca+2].[Ca+2].[OH-]` [hydroxyapatite], the mass density amounted to 3155 ± 12 kg/m3.
